Experimental data as given in patent publication US7642269B2, “Pyrrolo[3,2-B]pyridine derivatives and processes for the preparation thereof” (Yuhan Corporation, priority 2005, dated 2010).
Structures can show the parent of a compound that is named as a salt.

How the values were obtained:
[1] = test system: basal gastric acid secretion; assay: Inhibitory effects on basal gastric acid secretion in pylorus-ligated rats (Shay's rat model); assay type: in vivo, Sprague Dawley (SD) rats; details: oral, one hour before pylorus ligation, total acid output 5 hours after ligation, male SD rats
Protocol: Inhibitory effects of the compounds of the present invention on basal gastric acid secretion were performed according to Shay's rat model (Shay, H., et al., 1945, gastroenterology, 5, 43-61). Male Sprague Dawley (SD) rats (200±10 g body weight) were divided into 3 groups (n=5) and fasted for 24 hours with free access to water. Control group was orally administered with 0.5% methylcellulose alone and the other groups were orally administered with test compounds suspended in 0.5% methyl-cellulose solution at doses of 1, 3 and 10 mg/kg/5 ml one hour before pylorus ligation. Under ether anesthesia, the abdomens of the rats were incised and then the pylorus was ligated. 5 hours after ligation, the animals were sacrificed, and the gastric contents were collected. The collected contents were centrifuged at 1,000×g for 10 minutes to obtain the gastric juice. Total acid output was measured by 0.01N NaOH volume (ueq/ml) for automatic titration of the gastric juice to pH 7.0 and the ED50s of test compounds were calculated using the Litchfield-Wilcoxon method. % inhibitory activity was calculated from the following equation and the results are shown in Table 2. % inhibitory activity of test compound=(total acid output of control group−total acid output of the group treated with test compounds)/total acid output of control group X 100

H^+/K^+-ATPase = molecular target: T1, H^+/K^+-ATPase (Sus scrofa, UniProt P19156); assay: Inhibitory effects on proton pump (H^+/K^+-ATPase) activity, hog gastric vesicles; assay type: biochemical; details: K^+ stimulated H^+/K^+-ATPase activity, hog gastric vesicle, Pi measured at 620 nm
T1 construct: used as an enzyme source of the in vitro enzyme reaction assay of proton pump; from tissue; host or cells: hog gastric fundic mucosa (membrane vesicles, lyophilized)
Method in brief: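 Lyophilized hog gastric vesicles in Pipes/Tris pH 6.1 were preincubated 5 min with compounds (1% DMSO), then run with ATP for 30 min at 37 °C. Released phosphate was measured by malachite green at 620 nm; K^+-stimulated activity taken as the difference between reactions with and without K^+.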

[2] = molecular target: T2, hog gastric H^+/K^+-ATPase (Sus scrofa, UniProt P19156); assay: Reversible inhibition of hog gastric H^+/K^+-ATPase (Washout method); assay type: biochemical; details: for inhibition of H^+/K^+-ATPase activity after washout: activity completely recovered to non-treated group level; for inhibition of H^+/K^+-ATPase activity before washout: at the concentration giving 50% inhibition of the proton pump
T2 construct: from tissue; host or cells: hog fundic mucosa (gastric vesicles / microsomes, lyophilized)
Protocol: 3-1. […] Gastric vesicles were prepared from hog fundic mucosa using the method of Saccomani et al. (Saccomani […], Lewin M and Sachs G, Characterization of gastric mucosal membranes. IX. Fraction and purification of K-ATPase-containing vesicles by zonal centrifugation and free-flow electrophoresis technique. Biochem. Biophy. Acta. (BBA)-Biomembranes 465, 311-330, 1977.). This material was lyophilized and stored at -70° C. The protein content of gastric vesicles was determined by the Bradford method using bovine serum albumin as a standard (Bradford M M, A rapid and sensitive method for the quantitation of microgram quantities of protein utilizing the principle of protein-dye binding. Anal Biochem. 72, 248-254, 1976). 3-2. Determination of reversible inhibition of hog gastric H^+/K^+-ATPase Activity of H^+/K^+-ATPase in hog microsome (lyophilized vesicle) was measured by the inorganic phosphate released from ATP using an one-step colorimetric detection method at the concentration at which the test compounds have 50% inhibition of the proton pump (Chan […], and Junger K D, A direct colorimetric assay for Ca^2+-stimulated ATPase activity. Anal Biochem, 157, 375-380, 1986). […] Differentiation of their inhibition characteristics from those of omeprazole. Eur. J. Pharmacol., 187, 455-67, 1990). Lyophilized vesicle in the solution of 5 mM Pipes/Tris buffer was pre-incubated in the presence of the test compounds (the compounds of Examples 50, 64, and 94) at the concentration at which it has 50% inhibition of the proton pump. The previous reaction buffer was added with 2 mM MgCl2, 50 mM KCl, 5 uM Valinomycin, and 0.5 mM ATP and then incubated for 30 minutes at 37° C. The H^+/K^+-ATPase activity was measured using the calorimetric detection method and then the test sample was centrifuged at 100,000×g for 1 hr. The vesicles are present in the form of pellets in the test sample. The supernatant thereof was replaced with the same buffer not having the test compound. […] The H^+/K^+-ATPase activity was also measured using the calorimetric detection method. The H^+/K^+-ATPase activity before washout and after washout in the test sample was analyzed, in comparison with those in the non-treated group.

T1 sequence (P19156 2-1034 limits assumed): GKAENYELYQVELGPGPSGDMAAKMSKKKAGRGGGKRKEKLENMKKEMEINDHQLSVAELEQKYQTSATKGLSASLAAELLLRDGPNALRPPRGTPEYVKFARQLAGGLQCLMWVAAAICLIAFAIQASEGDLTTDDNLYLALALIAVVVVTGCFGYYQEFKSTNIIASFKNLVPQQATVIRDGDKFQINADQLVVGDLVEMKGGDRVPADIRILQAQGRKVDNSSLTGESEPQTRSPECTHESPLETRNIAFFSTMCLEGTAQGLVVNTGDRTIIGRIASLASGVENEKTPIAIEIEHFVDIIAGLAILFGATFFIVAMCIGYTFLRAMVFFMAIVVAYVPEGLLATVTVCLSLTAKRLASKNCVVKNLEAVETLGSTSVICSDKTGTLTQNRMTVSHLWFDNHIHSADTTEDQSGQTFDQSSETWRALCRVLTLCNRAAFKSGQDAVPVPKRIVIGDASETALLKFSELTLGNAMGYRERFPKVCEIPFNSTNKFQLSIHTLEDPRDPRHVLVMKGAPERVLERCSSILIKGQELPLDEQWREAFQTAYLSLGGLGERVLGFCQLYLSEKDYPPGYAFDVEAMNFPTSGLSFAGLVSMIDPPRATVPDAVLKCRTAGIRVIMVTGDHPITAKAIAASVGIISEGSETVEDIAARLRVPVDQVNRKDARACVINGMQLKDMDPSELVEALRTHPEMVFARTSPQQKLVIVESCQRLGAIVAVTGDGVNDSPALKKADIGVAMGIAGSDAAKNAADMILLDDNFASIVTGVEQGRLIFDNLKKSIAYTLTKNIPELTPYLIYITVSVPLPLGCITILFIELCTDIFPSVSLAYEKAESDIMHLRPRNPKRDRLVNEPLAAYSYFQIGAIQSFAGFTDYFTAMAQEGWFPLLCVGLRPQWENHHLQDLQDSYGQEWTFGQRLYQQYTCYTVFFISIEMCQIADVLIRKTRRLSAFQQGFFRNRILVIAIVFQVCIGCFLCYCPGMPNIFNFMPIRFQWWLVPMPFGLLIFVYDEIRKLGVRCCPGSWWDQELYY
T1 sequence (P18434 whole entry partner): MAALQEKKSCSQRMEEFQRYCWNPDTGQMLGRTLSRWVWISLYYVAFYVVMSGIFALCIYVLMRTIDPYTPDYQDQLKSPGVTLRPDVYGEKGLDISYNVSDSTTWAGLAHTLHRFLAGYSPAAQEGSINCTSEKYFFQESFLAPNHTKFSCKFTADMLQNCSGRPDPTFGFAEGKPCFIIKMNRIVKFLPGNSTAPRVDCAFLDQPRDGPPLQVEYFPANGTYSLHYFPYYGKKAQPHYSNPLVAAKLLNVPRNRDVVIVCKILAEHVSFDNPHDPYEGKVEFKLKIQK
T2 sequence (P19156 2-1034 limits assumed): as the sequence (P19156 2-1034 limits assumed) above
T2 sequence (P18434 whole entry partner): as the sequence (P18434 whole entry partner) above

Row | IC50 (H^+/K^+-ATPase) | inhibition of H^+/K^+-ATPase activity after washout [2] | inhibition of H^+/K^+-ATPase activity before washout [2] | Compound | ED50 [1]
1 | 110 nM |  |  | CCCn1c(C)c(C)c2nccc(OCc3ccc(F)cc3)c21.Cl [Example 62, 7-(4-fluorobenzyloxy)-2,3-dimethyl-1-propyl-1H-pyrrolo[3,2-b]pyridine hydrochloride] | 1.6 mg/kg
2 | 30 nM |  |  | C=CCn1c(C)c(C)c2nccc(OCc3ccc(Cl)cc3)c21.Cl [Example 72, 1-allyl-7-(4-chlorobenzyloxy)-2,3-dimethyl-1H-pyrrolo[3,2-b]pyridine hydrochloride] | 2 mg/kg
3 | 90 nM |  |  | Cc1c(C)n(CC2CC2)c2c(OCc3ccc(Cl)cc3)ccnc12.Cl [Example 97, 7-(4-chlorobenzyloxy)-1-cyclopropylmethyl-2,3-dimethyl-1H-pyrrolo[3,2-b]pyridine hydrochloride] | 2 mg/kg
4 | 50 nM |  |  | COCCn1c(C)c(C)c2nccc(OCc3ccc(Cl)cc3)c21.Cl [Example 86, 7-(4-chlorobenzyloxy)-1-(2-methoxyethyl)-2,3-dimethyl-1H-pyrrolo[3,2-b]pyridine hydrochloride] | 1.1 mg/kg
5 |  | did not inhibit |  | Cc1c(C)n(Cc2ccccc2)c2c(OCc3ccc(F)cc3)ccnc12.O=S(=O)(O)c1ccccc1 [Example 64, 1-benzyl-7-(4-fluorobenzyloxy)-2,3-dimethyl-1H-pyrrolo[3,2-b]pyridine benzenesulfonate] | 
6 | 100 nM |  |  | COCCn1c(C)c(C)c2nccc(OCc3ccc(F)cc3)c21.Cl [Example 61, 7-(4-fluorobenzyloxy)-1-(2-methoxyethyl)-2,3-dimethyl-1H-pyrrolo[3,2-b]pyridine hydrochloride] | 3 mg/kg
7 | 40 nM |  |  | Cc1c(C)n(Cc2ccccc2)c2c(OCc3ccc(Cl)cc3)ccnc12.Cl [Example 73, 1-benzyl-7-(4-chlorobenzyloxy)-2,3-dimethyl-1H-pyrrolo[3,2-b]pyridine hydrochloride] | 2.5 mg/kg
8 | 20 nM |  |  | Cc1c(C)n(CC2CC2)c2c(OCc3ccc(Cl)cc3Cl)ccnc12.Cl [Example 139, 1-cyclopropylmethyl-7-(2,4-dichlorobenzyloxy)-2,3-dimethyl-1H-pyrrolo[3,2-b]pyridine hydrochloride] | 1.6 mg/kg
9 | 2440 nM | did not inhibit | 50% | Cc1c(C)n(CC(C)C)c2c(OCc3ccc(F)cc3)ccnc12.Cl [Example 50, 7-(4-fluorobenzyloxy)-1-isobutyl-2,3-dimethyl-1H-pyrrolo[3,2-b]pyridine hydrochloride] | 2.4 mg/kg
10 | 70 nM |  |  | Cc1c(C)n(CC2CCC2)c2c(OCc3ccc(F)cc3)ccnc12.Cl [Example 55, 1-cyclobutylmethyl-7-(4-fluorobenzyloxy)-2,3-dimethyl-1H-pyrrolo[3,2-b]pyridine hydrochloride] | 1.3 mg/kg
11 | 1450 nM |  |  | Cc1ccc(Cn2c(C)c(C)c3nccc(NCc4ccc(F)cc4)c32)cc1 [Example 263, N-[1-(4-methylbenzyl)-2,3-dimethyl-1H-pyrrolo[3,2-b]pyridin-7-yl]-4-fluorobenzylamine hydrochloride] | 
12 | 230 nM |  |  | Cc1ccc(Cn2c(C)c(C)c3nccc(OCc4ccc(F)cc4)c32)cc1 [Example 34, 7-(4-fluorobenzyloxy)-2,3-dimethyl-1-(4-methylbenzyl)-1H-pyrrolo[3,2-b]pyridine hydrochloride] | 
13 | 320 nM |  |  | Cc1cccc(COc2ccnc3c(C)c(C)n(Cc4ccc(F)cc4)c23)c1 [Example 158, 1-(4-fluorobenzyl)-2,3-dimethyl-7-(3-methylbenzyloxy)-1H-pyrrolo[3,2-b]pyridine hydrochloride] | 
14 | 50 nM |  |  | C=CCn1c(C)c(C)c2nccc(OCc3ccc(Br)cc3)c21 [Example 220, 1-allyl-7-(4-bromobenzyloxy)-2,3-dimethyl-1H-pyrrolo[3,2-b]pyridine hydrochloride] | 
15 | 60 nM |  |  | COCCn1c(C)c(C)c2nccc(OCc3ccc(F)cc3)c21 [Example 133, 7-(4-fluorobenzyloxy)-1-(2-methoxyethyl)-2,3-dimethyl-1H-pyrrolo[3,2-b]pyridine hydrobromide] | 
16 | 1210 nM |  |  | CCCn1c(C)c(C)c2nccc(NCc3ccc(F)cc3)c21 [Example 260, N-(2,3-dimethyl-1-propyl-1H-pyrrolo[3,2-b]pyridin-7-yl)-4-fluorobenzylamine hydrochloride] | 
17 | 890 nM | did not inhibit | 50% | COC(=O)c1ccc(Cn2c(C)c(C)c3nccc(OCc4ccc(Cl)cc4)c32)cc1.Cl [Example 94, 7-(4-chlorobenzyloxy)-1-(4-methoxycarbonylbenzyl)-2,3-dimethyl-1H-pyrrolo[3,2-b]pyridine hydrochloride] | 
18 | 2820 nM |  |  | Cc1c(C)n(CC2OCCO2)c2c(OCc3ccc4c(c3)OCO4)ccnc12 [Example 100, 7-(benzo[1,3]dioxol-5-ylmethoxy)-1-([1,3]-dioxolan-2-ylmethyl)-2,3-dimethyl-1H-pyrrolo[3,2-b]pyridine hydrochloride] | 
19 | 3880 nM |  |  | CCCn1c(C)c(C)c2nccc(OCc3cc(F)cc(F)c3)c21 [Example 182, 7-(3,5-difluorobenzyloxy)-2,3-dimethyl-1-propyl-1H-pyrrolo[3,2-b]pyridine hydrochloride] | 
20 | 40 nM |  |  | COCCn1c(C)c(C)c2nccc(OCc3ccc(F)cc3)c21 [Example 127, 7-(4-fluorobenzyloxy)-1-(2-methoxyethyl)-2,3-dimethyl-1H-pyrrolo[3,2-b]pyridine sulfate] | 
